For one series, the system named is FSHD patients. Put plainly: Safety and tolerability monitoring in clinical study. The format is in vivo, human. To be noted: intramuscular injection into the gluteal muscle, when properly given. The text has this:
Safety outcome measures included (1) Changes from baseline in laboratory test results, vital signs, and EKG results, (2) Occurrence of serious adverse events, and (3) Occurrence of non-serious adverse events. Exploratory efficacy outcome measures included the following: • 1. Composite Quantitative Muscle Testing (QMT) score • 2. Composite Manual Muscle Testing (MMT) score • 3. FSHD Clinical Outcome Measure (FSHD-COM), total and individual test scores • 4. FSHD-Health Index (FSHD-HI), disease-specific patient-reported outcome measure • 5. Forced Vital Capacity (FVC) • 6. Epworth Sleepiness Scale • 7. Fatigue Severity Scale • 8. Dual Energy X-Ray Absorptiometry (DEXA) Lean Body Mass (total and regional) • 9. PROMIS-57 • 10. Individualized Neuromuscular Quality of Life Questionnaire (INQoL) • 11. Beck Depression Inventory (BDI) • 12. Six minute walk distance
For safety assessments and adverse event assessments, various clinical safety Laboratory tests were carried out. For treatment-specific assessments, the subjects were monitored for the following treatment-related events: • peripheral edema • carpal tunnel syndrome • gynecomastia • insulin resistance • arthralgia • increased erythropoiesis • reduced HDL cholesterol • elevated prostate specific antigen • elevated blood pressure […]

Series [1] has as its system patients with myotonic dystrophy. To be noted: 40 patients with myotonic dystrophy; cited from earlier work.
In series [2] the test system is adult muscular dystrophy population. Particulars: heterogeneous adult muscular dystrophy group with normal baseline testosterone; after 3 months of treatment; cited from earlier work.

In the case of `CCCCCCC(=O)O[C@H]1CC[C@H]2[C@@H]3CCC4=CC(=O)CC[C@]4(C)[C@H]3CC[C@]12C` [testosterone enanthate, Testosterone enanthate], in the series on FSHD patients, the “Tolerability of intramuscular injections” value was “well tolerated”. Turning to `C[C@]12CC[C@H]3[C@@H](CCC4=CC(=O)CC[C@@]43C)[C@@H]1CC[C@@H]2O` [testosterone, 17-β-hydroxyandrost-4-en-3-one], the “Safety and efficacy of testosterone in isolation” value in series [1] was “safe, tolerable, and able to improve both creatinine excretion and lean body mass while not statistically improving overall strength”. Moreover, in series [2], the “Safety and body composition effects of testosterone in isolation” value was “safe and increase lean body mass, reduce body fat, and improve basal metabolic rate”.

These data come from patent publication US20250325560A1, “METHODS FOR IMPROVING MUSCLE MASS, STRENGTH, OR FUNCTION WITH A COMBINATION OF TESTOSTERONE AND GROWTH HORMONE” (University of Rochester, priority 2022, published 2025).
